Read-outs that look alike come from different tables or passages of the source.
Experiments:
[1] = system: Influenza strain A549 A/WSN/33 (H1N1); assay: microbe, parasite or virus in culture; format: cell-based; settings: A549 cells, influenza A/WSN/33 (H1N1), 20 hours incubation, read-out: A549_A(H1N1) EC50
in vitro = settings: human, CC50, uninfected A549 cells, CellTiter-Glo

Compound	EC50 ([1]; Influenza A virus, A549, 20 h) [nM]	CC50 (in vitro) [nM]	EC50 [1] [nM]
O=C1c2c(O)c(=O)ccn2N2CN1CCCCCc1ccncc1[C@H]2c1ccccc1 (single isomer, unassigned) [Compound 34A, (18*R)-12-hydroxy-18-phenyl-5,6,7,8,9,18-hexahydro-10,17-methanodipyrido[1,2-b:4′,3′-k][1,2,5]triazacyclotridecine-11,13-dione]	59	> 2000	
O=C1c2c(O)c(=O)ccn2N2CN1CCCCCc1ccncc1[C@@H]2c1ccccc1 (single isomer, unassigned) [Compound 34B, (18*S)-12-hydroxy-18-phenyl-5,6,7,8,9,18-hexahydro-10,17-methanodipyrido[1,2-b:4′,3′-k][1,2,5]triazacyclotridecine-11,13-dione]	> 1000	> 2000	
O=C1c2c(O)c(=O)ccn2N2CN1C/C=C\CCc1ccncc1[C@H]2c1ccccc1 (single isomer, unassigned) [Compound 35A, (18*R,*Z)-12-hydroxy-18-phenyl-5,6,9,18-tetrahydro-10,17-methanodipyrido[1,2-b:4′,3′-k][1,2,5]triazacyclotridecine-11,13-dione]	69	> 2000	
O=C1c2c(O)c(=O)ccn2N2CN1C/C=C\CCc1ccncc1[C@@H]2c1ccccc1 (single isomer, unassigned) [Compound 35B, (18*S,*Z)-12-hydroxy-18-phenyl-5,6,9,18-tetrahydro-10,17-methanodipyrido[1,2-b:4′,3′-k][1,2,5]triazacyclotridecine-11,13-dione]	> 1000	> 2000	
O=C1c2c(O)c(=O)ccn2N2CN1C/C=C\COc1ccccc1[C@@H]2c1ccccc1F (single isomer, unassigned) [Compound 36A, (18*R,Z)-18-(2-fluorophenyl)-12-hydroxy-6,9-dihydro-18H-10,17-methanobenzo[b]pyrido[1,2-f][1]oxa[5,6,9]triazacyclotridecine-11,13-dione]	15	> 2000	
O=C1c2c(O)c(=O)ccn2N2CN1C/C=C\COc1ccccc1[C@H]2c1ccccc1F (single isomer, unassigned) [Compound 36B, (18*S,Z)-18-(2-fluorophenyl)-12-hydroxy-6,9-dihydro-18H-10,17-methanobenzo[b]pyrido[1,2-f][1]oxa[5,6,9]triazacyclotridecine-11,13-dione]	815	> 2000	
O=C1c2c(O)c(=O)ccn2N2CN1CC/C=C\COc1cccc3c1[C@@H]2c1ccccc1SC3 (single isomer, unassigned) [Compound 37A, (1*R,13Z)-7-hydroxy-16-oxa-23-thia-2,3,10-triazahexacyclo[15.12.1.12,10.03,8.021,30.024,29]hentriaconta-4,7,13,17,19,21(30),24(29),25,27-nonaene-6,9-dione]	12200	> 2000	
O=C1c2c(O)c(=O)ccn2N2CN1CC/C=C\COc1cccc3c1[C@H]2c1ccccc1SC3 (single isomer, unassigned) [Compound 37B, (1*S,13Z)-7-hydroxy-16-oxa-23-thia-2,3,10-triazahexacyclo[15.12.1.12,10.03,8.021,30.024,29]hentriaconta-4,7,13,17,19,21(30),24(29),25,27-nonaene-6,9-dione]	4	> 200	
O=C1c2c(O)c(=O)ccn2N2CN1CC/C=C/COc1cccc3c1[C@@H]2c1ccccc1SC3 (single isomer, unassigned) [Compound 37C]	> 1000	> 2000	
O=C1c2c(O)c(=O)ccn2N2CN1CC/C=C/COc1cccc3c1[C@H]2c1ccccc1SC3 (single isomer, unassigned) [Compound 37D, (1*S,13E)-7-hydroxy-16-oxa-23-thia-2,3,10-triazahexacyclo[15.12.1.12,10.03,8.021,30.024,29]hentriaconta-4,7,13,17,19,21(30),24(29),25,27-nonaene-6,9-dione]	1	> 200	
C/C1=C/COc2ccccc2[C@@H](c2ccccc2)N2CN(C1)C(=O)c1c(O)c(=O)ccn12 (single isomer, unassigned) [Compound 38A, (18*R,Z)-12-hydroxy-8-methyl-18-phenyl-6,9-dihydro-18H-10,17-methanobenzo[b]pyrido[1,2-f][1]oxa[5,6,9]triazacyclotridecine-11,13-dione]	> 1000	> 2000	
C/C1=C/COc2ccccc2[C@H](c2ccccc2)N2CN(C1)C(=O)c1c(O)c(=O)ccn12 (single isomer, unassigned) [Compound 38B, (18*S,Z)-12-hydroxy-8-methyl-18-phenyl-6,9-dihydro-18H-10,17-methanobenzo[b]pyrido[1,2-f][1]oxa[5,6,9]triazacyclotridecine-11,13-dione]	26	> 2000	
O=C1c2c(O)c(=O)ccn2N2CN1CCCCCc1ccccc1[C@@H]2c1ccccn1 (single isomer, unassigned) [Compound 40A, (17*R)-4-hydroxy-16-(pyridin-2-yl)-7,8,9,10,11,16-hexahydro-6,17-methanobenzo[k]pyrido[1,2-b][1,2,5]triazacyclotridecine-3,5-dione]	30	> 2000	
O=C1c2c(O)c(=O)ccn2N2CN1CCCCCc1ccccc1[C@H]2c1ccccn1 (single isomer, unassigned) [Compound 40B, (17*S)-4-hydroxy-16-(pyridin-2-yl)-7,8,9,10,11,16-hexahydro-6,17-methanobenzo[k]pyrido[1,2-b][1,2,5]triazacyclotridecine-3,5-dione]	> 1000	> 2000	
O=C1c2c(O)c(=O)ccn2N2CN1C/C=C\COc1cc(F)c(F)cc1[C@H]2c1ccccc1 (single isomer, unassigned) [Compound 41A, (18*R,Z)-2,3-difluoro-12-hydroxy-18-phenyl-6,9-dihydro-18H-10,17-methanobenzo[b]pyrido[1,2-f][1]oxa[5,6,9]triazacyclotridecine-11,13-dione]	294	> 2000	
O=C1c2c(O)c(=O)ccn2N2CN1C/C=C\COc1cc(F)c(F)cc1[C@@H]2c1ccccc1 (single isomer, unassigned) [Compound 41B, (18*S,Z)-2,3-difluoro-12-hydroxy-18-phenyl-6,9-dihydro-18H-10,17-methanobenzo[b]pyrido[1,2-f][1]oxa[5,6,9]triazacyclotridecine-11,13-dione]	6	> 2000	
C/C1=C/CN2CN([C@H](c3ccccc3)c3ccccc3OC1)n1ccc(=O)c(O)c1C2=O (single isomer, unassigned) [Compound 44A, (18*R,*Z)-12-hydroxy-7-methyl-18-phenyl-6,9-dihydro-18H-10,17-methanobenzo[b]pyrido[1,2-f][1]oxa[5,6,9]triazacyclotridecine-11,13-dione]	> 100	> 200	
C/C1=C/CN2CN([C@@H](c3ccccc3)c3ccccc3OC1)n1ccc(=O)c(O)c1C2=O (single isomer, unassigned) [Compound 44B, (18*S,*Z)-12-hydroxy-7-methyl-18-phenyl-6,9-dihydro-18H-10,17-methanobenzo[b]pyrido[1,2-f][1]oxa[5,6,9]triazacyclotridecine-11,13-dione]	> 10000	> 20000	
O=C1c2c(O)c(=O)ccn2N2CN1C/C=C\COc1ccccc1[C@H]2c1ccc(F)c(F)c1 (single isomer, unassigned) [Compound 45A, (18*R,Z)-18-(3,4-difluorophenyl)-12-hydroxy-6,9-dihydro-18H-10,17-methanobenzo[b]pyrido[1,2-f][1]oxa[5,6,9]triazacyclotridecine-11,13-dione]	> 1000	> 2000	
O=C1c2c(O)c(=O)ccn2N2CN1C/C=C\COc1ccccc1[C@@H]2c1ccc(F)c(F)c1 (single isomer, unassigned) [Compound 45B, (18*S,Z)-18-(3,4-difluorophenyl)-12-hydroxy-6,9-dihydro-18H-10,17-methanobenzo[b]pyrido[1,2-f][1]oxa[5,6,9]triazacyclotridecine-11,13-dione]	14	> 200	
O=C1c2c(O)c(=O)ccn2N2CN1C/C=C\COc1ccccc1[C@H]2c1ccc(F)cc1 (single isomer, unassigned) [Compound 47A, (18*R,Z)-18-(4-fluorophenyl)-12-hydroxy-6,9-dihydro-18H-10,17-methanobenzo[b]pyrido[1,2-f][1]oxa[5,6,9]triazacyclotridecine-11,13-dione]	> 1000	> 2000	
O=C1c2c(O)c(=O)ccn2N2CN1C/C=C\COc1ccccc1[C@@H]2c1ccc(F)cc1 (single isomer, unassigned) [Compound 47B, (18*S,Z)-18-(4-fluorophenyl)-12-hydroxy-6,9-dihydro-18H-10,17-methanobenzo[b]pyrido[1,2-f][1]oxa[5,6,9]triazacyclotridecine-11,13-dione]	15	> 200	
O=C1c2c(O)c(=O)ccn2N2CN1CCCCCOc1cccc3c1[C@H]2c1ccccc1SC3 (single isomer, unassigned) [Compound 48A]		> 2000	> 1000
O=C1c2c(O)c(=O)ccn2N2CN1CCCCCOc1cccc3c1[C@@H]2c1ccccc1SC3 (single isomer, unassigned) [Compound 48B]		> 2000	27
O=C1c2c(O)c(=O)ccn2N2CN1C/C=C\COc1ccc(Cl)cc1[C@H]2c1ccccc1 (single isomer, unassigned) [Compound 51A]	> 1000	> 2000	
O=C1c2c(O)c(=O)ccn2N2CN1C/C=C\COc1ccc(Cl)cc1[C@@H]2c1ccccc1 (single isomer, unassigned) [Compound 51B]	10	> 2000	

Source: patent US11312727B1, “Macrocyclic flu endonuclease inhibitors” (Janssen BioPharma, Inc., priority 2018, dated 2022)
